Results taken from patent publication US11623919B2, “Heterocyclic P2X7 antagonists” (AXXAM S.P.A., priority 2017, dated 2023).

Columns and labels:
Test in all cases: Screen Quest Fluo-8 No Wash Calcium Assay (Bz-ATP evoked Ca2+ influx, FLIPR)
Assay type in all cases: cell-based
[1] = target: T1, P2X7 receptor (Mus musculus, UniProt Q9Z1M0); conditions: mP2X7; HEK-293 cells stably transfected with P2X7 receptor, Bz-ATP at EC80, Fluo-8 NW; potency ranges A-D
T1 construct: mP2X7 (IC50; nM); other: mP2X7; HEK-293 cells stably transfected with P2X7 receptor, Bz-ATP at EC80, Fluo-8 NW; potency
T1 sequence (Q9Z1M0 1-595): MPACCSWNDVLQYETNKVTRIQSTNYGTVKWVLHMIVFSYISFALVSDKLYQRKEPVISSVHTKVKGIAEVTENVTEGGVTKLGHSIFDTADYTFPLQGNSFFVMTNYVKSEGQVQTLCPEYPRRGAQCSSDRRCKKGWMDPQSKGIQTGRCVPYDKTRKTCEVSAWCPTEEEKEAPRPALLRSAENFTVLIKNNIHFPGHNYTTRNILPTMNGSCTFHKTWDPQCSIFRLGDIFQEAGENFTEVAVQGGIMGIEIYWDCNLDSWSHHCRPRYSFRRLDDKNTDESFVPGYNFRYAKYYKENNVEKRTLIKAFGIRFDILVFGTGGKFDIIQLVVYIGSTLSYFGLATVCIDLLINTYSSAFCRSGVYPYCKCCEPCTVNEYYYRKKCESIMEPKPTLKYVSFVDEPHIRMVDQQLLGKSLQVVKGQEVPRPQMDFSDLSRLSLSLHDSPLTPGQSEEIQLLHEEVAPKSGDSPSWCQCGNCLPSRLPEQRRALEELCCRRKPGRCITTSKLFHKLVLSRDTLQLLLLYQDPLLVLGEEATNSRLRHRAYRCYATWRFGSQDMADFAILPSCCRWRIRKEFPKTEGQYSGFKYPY
Method in brief: (§1)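 HEK-293 cells stably expressing P2X7 were loaded with Fluo-8 NW for 1 h at RT, then given compound, and 5 min later Bz-ATP at EC80. Fluorescence was read by FLIPR in low divalent cation buffer (0.3 mM Ca2+, 0 mM Mg2+). IC50 came from percent inhibition relative to reference antagonist A438079.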

[2] = target: T2, P2X7 receptor (Rattus norvegicus, UniProt Q64663); conditions: rP2X7; HEK-293 cells stably transfected with P2X7 receptor, Bz-ATP at EC80, Fluo-8 NW; potency ranges A-D
T2 construct: rP2X7 (IC50; nM); other: rP2X7; HEK-293 cells stably transfected with P2X7 receptor, Bz-ATP at EC80, Fluo-8 NW; potency
T2 sequence (Q64663 1-595): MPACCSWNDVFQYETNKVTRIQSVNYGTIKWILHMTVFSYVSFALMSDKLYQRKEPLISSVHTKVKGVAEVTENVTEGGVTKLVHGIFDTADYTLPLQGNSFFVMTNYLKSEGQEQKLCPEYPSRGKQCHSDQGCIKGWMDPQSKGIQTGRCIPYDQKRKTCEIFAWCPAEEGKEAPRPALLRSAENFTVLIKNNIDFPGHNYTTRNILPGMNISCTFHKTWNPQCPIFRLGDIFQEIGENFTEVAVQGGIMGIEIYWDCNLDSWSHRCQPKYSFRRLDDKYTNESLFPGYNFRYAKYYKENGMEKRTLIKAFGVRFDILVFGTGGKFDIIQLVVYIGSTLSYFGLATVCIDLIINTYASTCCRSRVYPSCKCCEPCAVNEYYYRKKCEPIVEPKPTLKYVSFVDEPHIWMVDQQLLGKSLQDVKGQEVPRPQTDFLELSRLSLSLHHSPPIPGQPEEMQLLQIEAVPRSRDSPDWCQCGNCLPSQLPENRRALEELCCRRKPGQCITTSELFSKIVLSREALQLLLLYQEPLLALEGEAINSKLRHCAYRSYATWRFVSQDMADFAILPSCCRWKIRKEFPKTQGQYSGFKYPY
Method in brief: as §1

[3] = target: T3, P2X7 receptor (Homo sapiens, UniProt Q99572); set-up: hP2X7 (IC50; nM); other: hP2X7; HEK-293 cells stably transfected with P2X7 receptor, Bz-ATP at EC80, Fluo-8 NW; potency; conditions: hP2X7; HEK-293 cells stably transfected with P2X7 receptor, Bz-ATP at EC80, Fluo-8 NW; potency ranges A-D
T3 sequence (Q99572 1-595): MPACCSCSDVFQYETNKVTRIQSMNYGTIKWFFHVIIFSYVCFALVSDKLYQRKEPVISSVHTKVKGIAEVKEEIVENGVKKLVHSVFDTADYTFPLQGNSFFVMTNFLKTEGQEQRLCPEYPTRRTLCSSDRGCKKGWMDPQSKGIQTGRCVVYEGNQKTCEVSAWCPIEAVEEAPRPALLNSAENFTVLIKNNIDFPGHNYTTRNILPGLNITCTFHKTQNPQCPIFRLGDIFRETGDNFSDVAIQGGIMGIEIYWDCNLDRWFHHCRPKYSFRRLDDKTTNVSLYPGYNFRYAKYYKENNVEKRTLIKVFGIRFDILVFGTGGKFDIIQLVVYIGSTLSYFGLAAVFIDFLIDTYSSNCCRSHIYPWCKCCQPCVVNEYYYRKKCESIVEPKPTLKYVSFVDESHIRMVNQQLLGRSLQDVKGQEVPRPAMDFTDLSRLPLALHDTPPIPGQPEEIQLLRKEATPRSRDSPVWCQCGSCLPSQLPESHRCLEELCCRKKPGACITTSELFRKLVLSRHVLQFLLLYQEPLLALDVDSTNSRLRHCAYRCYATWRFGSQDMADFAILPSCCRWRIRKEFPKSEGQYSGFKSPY
Method in brief: as §1

IC50 [1] [nM] | IC50 [2] [nM] | IC50 [3] [nM] | Structure (SMILES)
200 to 1000 | 200 to 1000 | 200 to 1000 | O=c1onc(CCc2c(F)cccc2Cl)n1Cc1ccc(F)cc1 [Example 145, 3-[2-(2-chloro-6-fluorophenyl)ethyl]-4-(4-fluorobenzyl)-1,2,4-oxadiazol-5(4H)-one]
> 10000 | 1000 to 10000 | 1000 to 10000 | O=c1onc(CCc2c(F)cccc2Cl)n1CC1CCCCC1 [Example 146, 3-[2-(2-chloro-6-fluorophenyl)ethyl]-4-(cyclohexylmethyl)-1,2,4-oxadiazol-5(4H)-one]
200 to 1000 | 200 to 1000 | 200 to 1000 | O=c1onc(CCc2c(F)cccc2Cl)n1CC1CCC(F)(F)CC1 [Example 147, 3-[2-(2-chloro-6-fluorophenyl)ethyl]-4-[(4,4-difluorocyclohexyl)methyl]-1,2,4-oxadiazol-5(4H)-one]
200 to 1000 | < 200 | 200 to 1000 | O=c1onc(Cc2ccccc2F)n1CC1CCC(F)(F)CC1 [Example 150, 4-[(4,4-difluorocyclohexyl)methyl]-3-[(2-fluorophenyl)methyl]-4,5-dihydro-1,2,4-oxadiazol-5-one]
1000 to 10000 | 200 to 1000 | 200 to 1000 | O=c1onc(Cc2cccc(F)c2)n1CC1CCC(F)(F)CC1 [Example 151, 4-[(4,4-difluorocyclohexyl)methyl]-3-[(3-fluorophenyl)methyl]-4,5-dihydro-1,2,4-oxadiazol-5-one]
1000 to 10000 | 200 to 1000 | 200 to 1000 | O=c1onc(Cc2ccc(F)cc2)n1CC1CCC(F)(F)CC1 [Example 152, 4-[(4,4-difluorocyclohexyl)methyl]-3-[(4-fluorophenyl)methyl]-4,5-dihydro-1,2,4-oxadiazol-5-one]
200 to 1000 | < 200 | < 200 | O=c1onc(Cc2ccc(F)cc2F)n1CC1CCC(F)(F)CC1 [Example 153, 4-[(4,4-difluorocyclohexyl)methyl]-3-[(2,4-difluorophenyl)methyl]-4,5-dihydro-1,2,4-oxadiazol-5-one]

Second part, the molecule before the results:

Structure (SMILES) | IC50 [1] [nM] | IC50 [2] [nM] | IC50 [3] [nM]
O=c1onc(C(O)c2cccc(C(F)(F)F)c2Cl)n1Cc1ccccc1 (stereo not drawn) [Example 136, 4-benzyl-3-{[2-chloro-3-(trifluoromethyl)phenyl](hydroxy)methyl}-4,5-dihydro-1,2,4-oxadiazol-5-one] | > 10000 | > 10000 | 1000 to 10000
O=c1onc(C(O)c2ccc(F)cc2F)n1Cc1c(F)cccc1Cl (stereo not drawn) [Example 137, 4-[(2-chloro-6-fluorophenyl)methyl]-3-[(2,4-dffluorophenyl)(hydroxy)methyl]-4,5-dihydro-1,2,4-oxadiazol-5-one] | 1000 to 10000 | 1000 to 10000 | 1000 to 10000
O=c1onc(C(O)c2cccc(Cl)c2Cl)n1Cc1c(F)cccc1Cl (stereo not drawn) [Example 138, 4-[(2-chloro-6-fluorophenyl)methyl]-3-[(2,3-dichlorophenyl)(hydroxy)methyl]-4,5-dihydro-1,2,4-oxadiazol-5-one] | 1000 to 10000 | 1000 to 10000 | 1000 to 10000
O=c1snc(Cc2c(F)cccc2Cl)n1Cc1ccc(F)cc1 [Example 139, 3-[(2-chloro-6-fluorophenyl)methyl]-4-[(4-fluorophenyl)methyl]-4,5-dihydro-1,2,4-thiadiazol-5-one] | 1000 to 10000 | 200 to 1000 | 200 to 1000
O=c1onc(Cc2c(F)cccc2Cl)n1CCN1CCCCC1 [Example 143, 3-(2-chloro-6-fluorobenzyl)-4-[2-(piperidin-1-yl)ethyl]-1,2,4-oxadiazol-5(4H)-one] | 1000 to 10000 | 200 to 1000 | 200 to 1000
O=c1onc(CCc2c(F)cccc2Cl)n1Cc1c(F)cccc1Cl [Example 144, 4-(2-chloro-6-fluorobenzyl)-3-[2-(2-chloro-6-fluorophenyl)ethyl]-1,2,4-oxadiazol-5(4H)-one] | 1000 to 10000 | 200 to 1000 | 200 to 1000
